Common to all, as to test: selective drug sensitivity score (sDSS, relative to normal bone marrow) (sDSS (score)); higher = more potent and effective on the cell line relative to normal bone marrow cells
Holding throughout (conditions): 72 h

The subject of assay [1] is P12-ICHIKAWA
Assay [2] concerns SUP-B15.
Assay [3] has as its system 380.
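Further: ALL cell lines in 384-well plates, five doses spanning 10,000-fold, each plate scaled between vehicle and 100 µmol/L benzalkonium chloride controls, sDSS an adapted area-under-curve metric.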

In the case of `CC(=O)Nc1ccc(C(=O)Nc2ccccc2N)cc1` [Tacedinaline] (top concentration 1000 nM), the “selective drug sensitivity score” value in assay [1] was 0.68; in assay [2], 4.58; in assay [3] it was 12.2.

`O=C(/C=C\n1cnc(-c2cc(C(F)(F)F)cc(C(F)(F)F)c2)n1)NNc1ccccn1` [Verdinexor] (top concentration 1000 nM): the results for the “selective drug sensitivity score” value in assay [1], in assay [2] and in assay [3] were 5.64, 11.2 and 12, respectively.

Turning to `CCC(C)n1ncn(-c2ccc(N3CCN(c4ccc(OCC5COC(Cn6cncn6)(c6ccc(Cl)cc6Cl)O5)cc4)CC3)cc2)c1=O` (stereo not given) [Itraconazole] (top concentration 5000 nM), the “selective drug sensitivity score” value in assay [1] is -0.32; in assay [2], 1.18; in assay [3] it was -1.72.

For the compound `O=C(NOC[C@H](O)CO)c1ccc(F)c(F)c1Nc1ccc(I)cc1F` (top concentration 1000 nM), the “selective drug sensitivity score” value in assay [1] was 0.84; in assay [2] it was 13.5; in assay [3], 2.24.

As for `CC(C)C[C@H](NC(=O)[C@H](Cc1ccccc1)NC(=O)c1cnccn1)B(O)O` [Bortezomib] (top concentration 1000 nM), the figures for the “selective drug sensitivity score” value in assay [1], in assay [2] and in assay [3] were 2.22, 8.42 and 1.42, respectively.

With `O=C(c1ccc(F)c(F)c1Nc1ccc(I)cc1F)N1CC(O)([C@@H]2CCCCN2)C1` [Cobimetinib] (top concentration 1000 nM), the “selective drug sensitivity score” value is -1.88 in assay [1], 6.62 in assay [2] and 0.82 in assay [3].

As to `CO[C@@H](C)Cn1c(=O)n(C)c2cnc3ccc(-c4cncc(C(C)(C)O)c4)cc3c21` (top concentration 2500 nM), the “selective drug sensitivity score” value was determined as 1.38 in assay [1], 6.98 in assay [2] and 10.3 in assay [3].

Consider `C[C@H](Nc1ncnc2[nH]cnc12)c1cc2ccc(F)cc2nc1-c1ccccn1` [AMG319] (top concentration 1000 nM), for which the “selective drug sensitivity score” value in assay [1] was -1.42; in assay [2] it was 0.48; in assay [3] it was -1.02.

Take `CC[C@@H]1C(=O)N(C)c2cnc(Nc3ccc(C(=O)N[C@H]4CC[C@H](N5CCN(CC6CC6)CC5)CC4)cc3OC)nc2N1C(C)C` [Volasertib] (top concentration 1000 nM): the “selective drug sensitivity score” value in assay [1] turned out to be 11.5; in assay [2] it was 19.2; in assay [3], 15.

Turning to `COc1cc(OC)c(/C=C/S(=O)(=O)Cc2ccc(OC)c(NCC(=O)O)c2)c(OC)c1` [Rigosertib] (top concentration 10000 nM), the “selective drug sensitivity score” value in assay [1] worked out at 10.4; in assay [2] it was 14.6; in assay [3] it was 14.3.

With `CCN(CC)CCCC(C)Nc1c2ccc(Cl)cc2nc2ccc(OC)cc12` (stereo not given) [Mepacrine] (top concentration 50000 nM), the “selective drug sensitivity score” value was -7.8 in assay [1], -1.1 in assay [2] and -1.7 in assay [3].

`COc1ccc(-c2ccc3ncc4c(c3c2)n(-c2ccc(N3CCNCC3)c(C(F)(F)F)c2)c(=O)n4C)cn1` [NVP-BGT226] (top concentration 1000 nM): the entries for the “selective drug sensitivity score” value in assay [1], in assay [2] and in assay [3] were 2.72, 10.2 and 12.2, respectively.

In the case of `CC(=O)N(O)CCCCCNC(=O)CCC(=O)N(O)CCCCCNC(=O)CCC(=O)N(O)CCCCCN` [Deferoxamine] (top concentration 10000 nM), the entries for the “selective drug sensitivity score” value in assay [1], in assay [2] and in assay [3] were 3.66, 4.76 and 1.96, respectively.

On to `CO[C@H]1C(=O)[C@]2(C)[C@@H](OC)C[C@H]3OC[C@@]3(OC(C)=O)[C@H]2[C@H](OC(=O)c2ccccc2)[C@]2(O)C[C@H](OC(=O)[C@H](O)[C@@H](NC(=O)OC(C)(C)C)c3ccccc3)C(C)=C1C2(C)C` [Cabazitaxel] (top concentration 1000 nM), for which the “selective drug sensitivity score” value in assay [1] is 3.08; in assay [2] it was 21.9; in assay [3], 25.7.

`C[C@@H](Oc1cc(-n2cnc3ccc(CN4CCN(C)CC4)cc32)sc1C(N)=O)c1ccccc1C(F)(F)F` (top concentration 10000 nM): the “selective drug sensitivity score” value in assay [1] worked out at 21.9; in assay [2], 27.2; in assay [3] it was 25.5.

As for `Cc1cccc(CC(=O)N2CCc3c2ccc(-c2cn(C)c4ncnc(N)c24)c3F)n1` (top concentration 2500 nM), the “selective drug sensitivity score” value is 2.82 in assay [1], 7.22 in assay [2] and -0.68 in assay [3].

Turning to `C1=N/C2=N/c3ccc(OCCN4CCCC4)c(c3)COC/C=C/COCc3cccc(c3)C(=C1)N2` [Pacritinib] (top concentration 10000 nM), the “selective drug sensitivity score” value in assay [1] was -7.3; in assay [2], -3.7; in assay [3] it was -8.7.

Turning to `C=CCn1c(=O)c2cnc(Nc3ccc(N4CCN(C)CC4)cc3)nc2n1-c1cccc(C(C)(C)O)n1` [AZD1775] (top concentration 10000 nM), the figures for the “selective drug sensitivity score” value in assay [1], in assay [2] and in assay [3] were 13.6, 14.7 and 10.8, respectively.

Take `CCOC(=O)CCNc1cc(N2CCc3ccccc3CC2)nc(-c2ccccn2)n1` [GSK-J4] (top concentration 100000 nM): the “selective drug sensitivity score” value is -7.68 in assay [1], -8.48 in assay [2] and -9.38 in assay [3].

In the case of `C[C@@H]1CN(CC(=O)Nc2ccc3c(c2)Cc2cccc(-c4cc(=O)cc(N5CCOCC5)o4)c2S3)C[C@H](C)O1` (top concentration 25000 nM), the “selective drug sensitivity score” value in assay [1] is -0.58; in assay [2], -0.58; in assay [3], -1.88.

On to `CNC(=O)c1ccccc1Nc1nc(Nc2ccc3c(c2OC)CCC[C@H](N2CCN(CCO)CC2)C3)ncc1Cl` (top concentration 5000 nM), for which the “selective drug sensitivity score” value is -2.84 in assay [1], 3.96 in assay [2] and 2.06 in assay [3].

As to `CCNC(=O)c1noc(-c2cc(C(C)C)c(O)cc2O)c1-c1ccc(CN2CCOCC2)cc1` [Luminespib] (top concentration 1000 nM), the “selective drug sensitivity score” value in assay [1] is -5; in assay [2], -1; in assay [3], 6.3.

Take `NC(=O)Nc1cc(-c2cccc(F)c2)sc1C(=O)N[C@H]1CCCNC1` [AZD7762] (top concentration 1000 nM): the “selective drug sensitivity score” value in assay [1] was -0.5; in assay [2], -0.4; in assay [3], 1.

Take `Cc1c(N)nc([C@H](CC(N)=O)NC[C@H](N)C(N)=O)nc1C(=O)N[C@H](C(=O)N[C@H](C)[C@@H](O)[C@H](C)C(=O)N[C@H](C(=O)NCCc1nc(-c2nc(C(=O)NCCC[S+](C)C)cs2)cs1)[C@@H](C)O)[C@@H](O[C@@H]1O[C@@H](CO)[C@@H](O)[C@H](O)[C@@H]1O[C@H]1O[C@H](CO)[C@@H](O)[C@H](OC(N)=O)[C@@H]1O)c1c[nH]cn1` [Bleomycin] (top concentration 10000 nM): the “selective drug sensitivity score” value in assay [1] is -0.56; in assay [2], 6.44; in assay [3], 4.34.

In the case of `CC(C)C[C@H](NC(=O)[C@H](CCc1ccccc1)NC(=O)CN1CCOCC1)C(=O)N[C@@H](Cc1ccccc1)C(=O)N[C@@H](CC(C)C)C(=O)[C@@]1(C)CO1` [Carfilzomib] (top concentration 1000 nM), the “selective drug sensitivity score” value in assay [1] is 1.26; in assay [2], 4.56; in assay [3], 0.06.

On to `CNC(=O)c1ccccc1Nc1cc(Nc2ccc(N3CCOCC3)cc2OC)ncc1C(F)(F)F` [VS-4718] (top concentration 10000 nM), for which the results for the “selective drug sensitivity score” value in assay [1], in assay [2] and in assay [3] were 1.7, -3 and -5, respectively.

For `Cc1sc2c(c1C)C(c1ccc(Cl)cc1)=N[C@@H](CC(=O)OC(C)(C)C)c1nnc(C)n1-2` [JQ1] (top concentration 10000 nM), the “selective drug sensitivity score” value was 5.12 in assay [1], 3.02 in assay [2] and -0.88 in assay [3].

On to `NC(=O)NO` [Hydroxyurea] (top concentration 1000000 nM), for which the “selective drug sensitivity score” value was 6.46 in assay [1], 9.96 in assay [2] and -1.04 in assay [3].

In the case of `Cn1c(=O)n(-c2ccc(C(C)(C)C#N)cc2)c2c3cc(-c4cnc5ccccc5c4)ccc3ncc21` [Dactolisib] (top concentration 1000 nM), the results for the “selective drug sensitivity score” value in assay [1], in assay [2] and in assay [3] were 4.76, 10.3 and 17.5, respectively.

For the compound `Nc1nccc(-c2c(-c3ccc(F)cc3)ncn2C2CCCCC2)n1` (top concentration 10000 nM), the results for the “selective drug sensitivity score” value in assay [1], in assay [2] and in assay [3] were 0.1, 2.4 and 1.4, respectively.

Turning to `CNC(=O)c1ccccc1Sc1ccc2c(/C=C/c3ccccn3)n[nH]c2c1` [Axitinib] (top concentration 10000 nM), the “selective drug sensitivity score” value in assay [1] was 12.1; in assay [2], 16.4; in assay [3], 1.56.

On to `CN(C)Cc1c(C(=O)NCCOc2ccc(C(=O)NO)cc2)oc2ccccc12` [Abexinostat] (top concentration 10000 nM), for which the entries for the “selective drug sensitivity score” value in assay [1], in assay [2] and in assay [3] were 4.66, 6.26 and 7.56, respectively.

As for `COc1ccc(-c2nc(N3CCOCC3)c3sc(CN(C)c4ncc(C(=O)NO)cn4)cc3n2)cn1` [Fimepinostat (CUDC-907)] (top concentration 10000 nM), the figures for the “selective drug sensitivity score” value in assay [1], in assay [2] and in assay [3] were 5.18, 10.7 and 10.3, respectively.

Turning to `COc1ccc(C[C@H](NC(=O)[C@H](C)NC(=O)CN2CCOCC2)C(=O)N[C@@H](Cc2ccccc2)C(=O)[C@@]2(C)CO2)cc1` [ONX-0914] (top concentration 10000 nM), the “selective drug sensitivity score” value in assay [1] is 7.3; in assay [2] it was 11.5; in assay [3], 5.5.

As for `O=C(O)c1ccc(-c2c[nH]c3ncc(-c4ccccc4)cc23)cc1C1CCCC1` (top concentration 10000 nM), the figures for the “selective drug sensitivity score” value in assay [1], in assay [2] and in assay [3] were 3.46, -1.44 and 0.86, respectively.

Source of the values: the supplement of paper PMC8967900.
